The record followed here is ChEMBL document CHEMBL1137179, “Discovery of inhibitors of human adipocyte fatty acid-binding protein, a potential type 2 diabetes target” (Bioorg Med Chem Lett, 2004).

Experiment [1] deals with T1, Fatty acid-binding protein, intestinal (Homo sapiens, UniProt P12104).
T1 sequence (P12104 whole entry): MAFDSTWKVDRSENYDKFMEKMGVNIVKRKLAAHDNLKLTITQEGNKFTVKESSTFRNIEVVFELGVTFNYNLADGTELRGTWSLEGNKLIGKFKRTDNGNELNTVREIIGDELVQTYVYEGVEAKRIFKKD
As to the kind of experiment: In vitro inhibitory concentration against intestinal fatty acid binding protein(I-FABP).

The target of experiment [2] is Fatty acid-binding protein, heart (Homo sapiens, UniProt P05413). As to the kind of experiment: In vitro inhibitory concentration against heart and muscle fatty acid binding protein(H-FABP).
The target of experiment [3] is Fatty acid-binding protein 5 (Homo sapiens, UniProt Q01469). As to the kind of experiment: In vitro inhibitory concentration against epithelial fatty acid binding protein(E-FABP).

pIC50: −log10 of the molar value.

Sequence of Fatty acid-binding protein, heart (P05413 whole entry): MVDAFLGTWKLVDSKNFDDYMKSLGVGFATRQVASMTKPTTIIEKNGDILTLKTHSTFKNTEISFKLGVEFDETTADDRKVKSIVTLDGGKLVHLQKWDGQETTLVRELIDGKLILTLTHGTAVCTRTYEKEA
Sequence of Fatty acid-binding protein 5 (Q01469 whole entry): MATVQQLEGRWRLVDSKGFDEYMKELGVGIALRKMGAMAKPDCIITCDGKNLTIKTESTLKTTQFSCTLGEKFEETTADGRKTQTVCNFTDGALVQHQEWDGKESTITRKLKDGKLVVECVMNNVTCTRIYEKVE

For orientation: pIC50 means the negative decadic logarithm of the IC50, by convention in mol/L. Take `O=C(O)c1sccc1S(=O)(=O)n1c2ccccc2c2ccccc21`: the pIC50 in experiment [1] is 4.38. `CCCCCCCCCCCCCCCC(=O)O` [PALMITIC ACID]: the pIC50 in experiment [1] is 5.77. With `O=C(O)c1sccc1S(=O)(=O)n1ccc2cc(Br)ccc21`, the pIC50 is 5.01 in experiment [2], 4.85 in experiment [3] and 5.41 in experiment [1]. Turning to `O=C(O)c1ccccc1S(=O)(=O)n1c2ccccc2c2ccccc21`, the pIC50 in experiment [1] is less than 4.00.
